Data on four compounds can be found in ChEMBL document CHEMBL3244058, “Dibenz[b,e]oxepinalkanoic acids as nonsteroidal antiinflammatory agents. 2. Dihydro-10-oxofuro-and -thieno[3,2-c][1]benzoxepin-8-acetic acids” (J Med Chem, 1977).

Data set [1] has as its system Rattus norvegicus. Nature of the data set: Antiinflammatory activity in po dosed rat assessed as inhibition of carrageenan-induced paw edema. It counts as functional. In general terms: The carrageenan paw model is a standard test of acute inflammation.
The nature of data set [2]: Gastrointestinal toxicity in po dosed rat assessed as induction of gastric irritation. It counts as organism-based, Stomach. Particulars: in vivo, read-out: ID50 (the source's name).
A short description of data set [3]: Therapeutic index, ratio of ID50 for po dosed rat to ED50 for po dosed rat. The class given is organism-based. Particulars: in vivo, read-out: TI.
The subject of data set [4] is Rattus norvegicus. In words: Ratio of indomethacin ED50 to compound ED50 for po dosed rat assessed as inhibition of carrageenan-induced paw edema. The class given is functional.

A word on the ED50: it is the dose that gives a 50% effect, or the effect in half of the subjects. For `O=C(O)Cc1ccc2c(c1)C(=O)c1sccc1CO2`, in data set [1], the ED50 came out at 3.37 mg/kg. Also, the TD50 in data set [2] came out at 33.7 mg/kg. In data set [3], the selectivity ratio was determined as 10. In addition, the “Ratio ED50” value in data set [4] is listed as 1.3.

Turning to `O=C(O)Cc1ccc2c(c1)C(=O)c1occc1CO2`, in data set [1], the median effective dose (ED50) turned out to be 33.3 mg/kg.

As to `COc1ccc2c(c1)c(CC(=O)O)c(C)n2C(=O)c1ccc(Cl)cc1` [INDOMETHACIN], the ED50 in data set [1] was found to be 4.35 mg/kg. Further, the selectivity ratio in data set [3] turned out to be 0.4.

Take `O=C(O)Cc1ccc2c(c1)C(=O)c1ccccc1CO2` [ISOXEPAC]: in data set [1], the ED50 turned out to be 6.36 mg/kg. Moreover, the selectivity ratio in data set [3] turned out to be 13.
